Values of other authors as cited in publication PMC4860011 (Biochemistry, 2015).

Molecular target: bsNOS (Bacillus subtilis, UniProt O34453)
Details: read-out: KD of imidazole; used to convert KS,app to KS

Chain of bsNOS (O34453 whole entry): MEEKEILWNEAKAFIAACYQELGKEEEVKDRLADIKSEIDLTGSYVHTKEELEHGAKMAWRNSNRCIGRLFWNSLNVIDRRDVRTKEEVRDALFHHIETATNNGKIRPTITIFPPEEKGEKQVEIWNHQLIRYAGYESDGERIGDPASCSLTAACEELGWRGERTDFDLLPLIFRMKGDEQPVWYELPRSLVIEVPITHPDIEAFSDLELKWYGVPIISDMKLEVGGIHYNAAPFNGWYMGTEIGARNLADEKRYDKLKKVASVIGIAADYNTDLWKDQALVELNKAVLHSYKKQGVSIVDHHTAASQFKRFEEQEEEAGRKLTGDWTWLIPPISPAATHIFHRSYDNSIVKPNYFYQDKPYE

## c1c[nH]cn1 [imidazole]
  Kd: 384 µM
